Test results reported in PMC8398255, “Synthesis of 3,5-Bis(trifluoromethyl)phenyl-Substituted Pyrazole Derivatives as Potent Growth Inhibitors of Drug-Resistant Bacteria” (Molecules, 2021).
In brackets after ≈: the same amount, converted by molar mass.

Tests used:
Type in all cases: cell-based
[1] = tested on: Bacillus subtilis ATCC 6623 (Bs); test: MIC, microdilution (CLSI); details: ATCC6623; Bs, Bacillus subtilis ATCC 6623; n = 3; read-out: MIC
Procedure: (§1) Compounds were dissolved in dimethyl sulfoxide (DMSO) to achieve a starting concentration of 32 µg/mL as described by us previously. Compounds were further diluted two-fold across the 96-well honeycomb plate columns in cation adjusted Mueller Hinton broth (CAMHB), and bacterial culture was added. Plates were incubated for 18–20 h at 35 ℃ before determining the minimum concentrations at which wells had no visible turbidity to the naked eye. The MIC values were determined from at least a duplicate result obtained from three independent experiments using fresh bacterial cultures on different days.

[2] = tested on: E. faecalis ATCC 29212 (Ef12); test: MIC, microdilution (CLSI); details: Enterococcus faecalis, ATCC29212; Ef12, antibiotic susceptible E. faecalis ATCC 29212; n = 3; read-out: MIC
Procedure: as §1

[3] = tested on: E. faecalis ATCC 51299 (Ef99); test: MIC, microdilution (CLSI); details: Enterococcus faecalis, ATCC 51299 / VRE; Ef99, vancomycin-resistant (VRE) E. faecalis ATCC 51299; n = 3; read-out: MIC
Procedure: as §1

[4] = tested on: E. faecium ATCC 700221 (Ef21); test: MIC, microdilution (CLSI); details: Enterococcus faecium, ATCC 700221 / VRE; Ef21, vancomycin-resistant (VRE) E. faecium ATCC 700221; n = 3; read-out: MIC
Procedure: as §1

[5] = tested on: S. aureus ATCC 25923 (Sa23); test: MIC, microdilution (CLSI); details: Staphylococcus aureus, ATCC25923; Sa23, antibiotic susceptible S. aureus ATCC 25923; n = 3; read-out: MIC
Procedure: as §1

[6] = tested on: S. aureus ATCC 33591 (Sa91); test: MIC, microdilution (CLSI); details: Staphylococcus aureus, ATCC33591; Sa91, methicillin-resistant S. aureus ATCC 33591; n = 3; read-out: MIC
Procedure: as §1

[7] = tested on: S. aureus ATCC 33592 (Sa92); test: MIC, microdilution (CLSI); details: Staphylococcus aureus, ATCC33592; Sa92, methicillin-resistant S. aureus ATCC 33592; n = 3; read-out: MIC
Procedure: as §1

[8] = tested on: S. aureus ATCC 700699 (Sa99); test: MIC, microdilution (CLSI); details: Staphylococcus aureus, ATCC700699; Sa99, methicillin-resistant S. aureus ATCC 700699; n = 3; read-out: MIC
Procedure: as §1

[9] = tested on: S. aureus BAA-2312 (Sa12); test: MIC, microdilution (CLSI); details: Staphylococcus aureus, BAA2312; Sa12, methicillin-resistant S. aureus BAA-2312; n = 3; read-out: MIC
Procedure: as §1

[10] = tested on: S. epidermidis ATCC 700296 (Se); test: MIC, microdilution (CLSI); details: Staphylococcus epidermidis, ATCC700296; Se, S. epidermidis ATCC 700296; n = 3; read-out: MIC
Procedure: as §1

Gram-positive bacteria = test: MIC across the tested strains; details: across the tested strains
Procedure: as §1

Compound	MIC [1]	MIC [2]	MIC [3]	MIC [4]	MIC [5]	MIC [6]	MIC [7]	MIC [8]	MIC [9]	MIC [10]	MIC (Gram-positive bacteria)
O=C(O)c1ccc(-n2cc(CNc3ccc(Cl)cc3)c(-c3cc(C(F)(F)F)cc(C(F)(F)F)c3)n2)cc1 [Compound 9, 4-[3-[3,5-Bis(trifluoromethyl)phenyl]-4-[(4-chloroanilino)methyl]pyrazol-1-yl] benzoic acid]	1 µg/mL (≈ 1.85 µM)	2 µg/mL (≈ 3.7 µM)	2 µg/mL (≈ 3.7 µM)	2 µg/mL (≈ 3.7 µM)	2 µg/mL (≈ 3.7 µM)	2 µg/mL (≈ 3.7 µM)	1 µg/mL (≈ 1.85 µM)	2 µg/mL (≈ 3.7 µM)	1 µg/mL (≈ 1.85 µM)	2 µg/mL (≈ 3.7 µM)	–
O=C(O)c1ccc(-n2cc(CNc3ccc(F)c(Cl)c3F)c(-c3cc(C(F)(F)F)cc(C(F)(F)F)c3)n2)cc1 [Compound 27, 4-[3-[3,5-Bis(trifluoromethyl)phenyl]-4-[(3-chloro-2,4-difluoro-anilino)methyl]pyraz-ol-1-yl] benzoic acid]	1 µg/mL (≈ 1.74 µM)	2 µg/mL (≈ 3.47 µM)	2 µg/mL (≈ 3.47 µM)	1 µg/mL (≈ 1.74 µM)	1 µg/mL (≈ 1.74 µM)	1 µg/mL (≈ 1.74 µM)	1 µg/mL (≈ 1.74 µM)	2 µg/mL (≈ 3.47 µM)	1 µg/mL (≈ 1.74 µM)	2 µg/mL (≈ 3.47 µM)	–
Cc1cc(NCc2cn(-c3ccc(C(=O)O)cc3)nc2-c2cc(C(F)(F)F)cc(C(F)(F)F)c2)ccc1F [Compound 14, 4-[3-[3,5-Bis(trifluoromethyl)phenyl]-4-[(4-fluoro-3-methyl-anilino)methyl]pyrazol-1-yl] benzoic acid]	1 µg/mL (≈ 1.86 µM)	2 µg/mL (≈ 3.72 µM)	2 µg/mL (≈ 3.72 µM)	1 µg/mL (≈ 1.86 µM)	2 µg/mL (≈ 3.72 µM)	2 µg/mL (≈ 3.72 µM)	1 µg/mL (≈ 1.86 µM)	2 µg/mL (≈ 3.72 µM)	1 µg/mL (≈ 1.86 µM)	4 µg/mL (≈ 7.44 µM)	≥ 1 µg/mL
O=C(O)c1ccc(-n2cc(CNc3ccc(F)c(F)c3F)c(-c3cc(C(F)(F)F)cc(C(F)(F)F)c3)n2)cc1 [Compound 24, 4-[3-[3,5-Bis(trifluoromethyl)phenyl]-4-[(2,3,4-trifluoroanilino)methyl]pyrazol-1-yl] benzoic acid]	1 µg/mL (≈ 1.79 µM)	2 µg/mL (≈ 3.58 µM)	2 µg/mL (≈ 3.58 µM)	1 µg/mL (≈ 1.79 µM)	2 µg/mL (≈ 3.58 µM)	1 µg/mL (≈ 1.79 µM)	1 µg/mL (≈ 1.79 µM)	2 µg/mL (≈ 3.58 µM)	1 µg/mL (≈ 1.79 µM)	4 µg/mL (≈ 7.15 µM)	–
CSc1ccc(NCc2cn(-c3ccc(C(=O)O)cc3)nc2-c2cc(C(F)(F)F)cc(C(F)(F)F)c2)cc1 [Compound 6, 4-[3-[3,5-Bis(trifluoromethyl)phenyl]-4-[(4-methylsulfanylanilino)methyl]pyrazol-1-yl] benzoic acid]	1 µg/mL (≈ 1.81 µM)	4 µg/mL (≈ 7.25 µM)	2 µg/mL (≈ 3.63 µM)	2 µg/mL (≈ 3.63 µM)	2 µg/mL (≈ 3.63 µM)	2 µg/mL (≈ 3.63 µM)	2 µg/mL (≈ 3.63 µM)	4 µg/mL (≈ 7.25 µM)	2 µg/mL (≈ 3.63 µM)	4 µg/mL (≈ 7.25 µM)	1 to 4 µg/mL (≈ 1.81 to 7.25 µM)
Cc1ccc(NCc2cn(-c3ccc(C(=O)O)cc3)nc2-c2cc(C(F)(F)F)cc(C(F)(F)F)c2)cc1Cl [Compound 15, 4-[3-[3,5-Bis(trifluoromethyl)phenyl]-4-[(3-chloro-4-methyl-anilino)methyl]pyrazol-1-yl] benzoic acid]	1 µg/mL (≈ 1.81 µM)	2 µg/mL (≈ 3.61 µM)	2 µg/mL (≈ 3.61 µM)	1 µg/mL (≈ 1.81 µM)	2 µg/mL (≈ 3.61 µM)	1 µg/mL (≈ 1.81 µM)	2 µg/mL (≈ 3.61 µM)	2 µg/mL (≈ 3.61 µM)	1 µg/mL (≈ 1.81 µM)	2 µg/mL (≈ 3.61 µM)	≥ 1 µg/mL
O=C(O)c1ccc(-n2cc(CNc3ccc(Br)c(C(F)(F)F)c3)c(-c3cc(C(F)(F)F)cc(C(F)(F)F)c3)n2)cc1 [Compound 23, 4-[3-[3,5-Bis(trifluoromethyl)phenyl]-4-[[4-bromo-3-(trifluoromethyl)anilino]methyl]pyrazol-1-yl] benzoic acid]	1 µg/mL (≈ 1.53 µM)	2 µg/mL (≈ 3.07 µM)	2 µg/mL (≈ 3.07 µM)	2 µg/mL (≈ 3.07 µM)	1 µg/mL (≈ 1.53 µM)	1 µg/mL (≈ 1.53 µM)	1 µg/mL (≈ 1.53 µM)	2 µg/mL (≈ 3.07 µM)	2 µg/mL (≈ 3.07 µM)	4 µg/mL (≈ 6.13 µM)	–
O=C(O)c1ccc(-n2cc(CNc3cccc(F)c3)c(-c3cc(C(F)(F)F)cc(C(F)(F)F)c3)n2)cc1 [Compound 7, 4-[3-[3,5-Bis(trifluoromethyl)phenyl]-4-[(3-fluoroanilino)methyl]pyrazol-1-yl] benzoic acid]	2 µg/mL (≈ 3.82 µM)	8 µg/mL (≈ 15.3 µM)	4 µg/mL (≈ 7.64 µM)	4 µg/mL (≈ 7.64 µM)	4 µg/mL (≈ 7.64 µM)	4 µg/mL (≈ 7.64 µM)	2 µg/mL (≈ 3.82 µM)	4 µg/mL (≈ 7.64 µM)	2 µg/mL (≈ 3.82 µM)	4 µg/mL (≈ 7.64 µM)	–

The remaining molecules from weak to strong by MIC [1], led by results:

MIC [1]	MIC [2]	MIC [3]	MIC [4]	MIC [5]	MIC [6]	MIC [7]	MIC [8]	MIC [9]	MIC [10]	Compound	MIC (Gram-positive bacteria)
4 µg/mL (≈ 7.47 µM)	16 µg/mL (≈ 29.9 µM)	16 µg/mL (≈ 29.9 µM)	8 µg/mL (≈ 14.9 µM)	8 µg/mL (≈ 14.9 µM)	8 µg/mL (≈ 14.9 µM)	8 µg/mL (≈ 14.9 µM)	8 µg/mL (≈ 14.9 µM)	4 µg/mL (≈ 7.47 µM)	16 µg/mL (≈ 29.9 µM)	COc1ccc(NCc2cn(-c3ccc(C(=O)O)cc3)nc2-c2cc(C(F)(F)F)cc(C(F)(F)F)c2)cc1 [Compound 4, 4-[3-[3,5-Bis(trifluoromethyl)phenyl]-4-[(4-methoxyanilino)methyl]pyrazol-1-yl] benzoic acid]	–
2 µg/mL (≈ 3.42 µM)	4 µg/mL (≈ 6.85 µM)	2 µg/mL (≈ 3.42 µM)	4 µg/mL (≈ 6.85 µM)	2 µg/mL (≈ 3.42 µM)	2 µg/mL (≈ 3.42 µM)	2 µg/mL (≈ 3.42 µM)	2 µg/mL (≈ 3.42 µM)	2 µg/mL (≈ 3.42 µM)	4 µg/mL (≈ 6.85 µM)	O=C(O)c1ccc(-n2cc(CNc3cccc(Br)c3)c(-c3cc(C(F)(F)F)cc(C(F)(F)F)c3)n2)cc1 [Compound 10, 4-[3-[3,5-Bis(trifluoromethyl)phenyl]-4-[(3-bromoanilino)methyl]pyrazol-1-yl] benzoic acid]	–
2 µg/mL (≈ 3.56 µM)	1 µg/mL (≈ 1.78 µM)	0.5 µg/mL (≈ 0.89 µM)	2 µg/mL (≈ 3.56 µM)	1 µg/mL (≈ 1.78 µM)	1 µg/mL (≈ 1.78 µM)	2 µg/mL (≈ 3.56 µM)	2 µg/mL (≈ 3.56 µM)	1 µg/mL (≈ 1.78 µM)	1 µg/mL (≈ 1.78 µM)	CC(C)(C)c1ccc(NCc2cn(-c3ccc(C(=O)O)cc3)nc2-c2cc(C(F)(F)F)cc(C(F)(F)F)c2)cc1 [Compound 3, 4-[3-[3,5-Bis(trifluoromethyl)phenyl]-4-[(4-tert-butylanilino)methyl]pyrazol-1-yl] benzoic acid]	–
1 µg/mL (≈ 1.79 µM)	2 µg/mL (≈ 3.59 µM)	2 µg/mL (≈ 3.59 µM)	1 µg/mL (≈ 1.79 µM)	2 µg/mL (≈ 3.59 µM)	1 µg/mL (≈ 1.79 µM)	1 µg/mL (≈ 1.79 µM)	2 µg/mL (≈ 3.59 µM)	1 µg/mL (≈ 1.79 µM)	2 µg/mL (≈ 3.59 µM)	O=C(O)c1ccc(-n2cc(CNc3ccc(F)c(Cl)c3)c(-c3cc(C(F)(F)F)cc(C(F)(F)F)c3)n2)cc1 [Compound 18, 4-[3-[3,5-Bis(trifluoromethyl)phenyl]-4-[(3-chloro-4-fluoro-anilino)methyl]pyrazol-1-yl] benzoic acid]	–
1 µg/mL (≈ 1.91 µM)	4 µg/mL (≈ 7.64 µM)	4 µg/mL (≈ 7.64 µM)	4 µg/mL (≈ 7.64 µM)	2 µg/mL (≈ 3.82 µM)	2 µg/mL (≈ 3.82 µM)	2 µg/mL (≈ 3.82 µM)	4 µg/mL (≈ 7.64 µM)	2 µg/mL (≈ 3.82 µM)	4 µg/mL (≈ 7.64 µM)	O=C(O)c1ccc(-n2cc(CNc3ccc(F)cc3)c(-c3cc(C(F)(F)F)cc(C(F)(F)F)c3)n2)cc1 [Compound 8, 4-[3-[3,5-Bis(trifluoromethyl)phenyl]-4-[(4-fluoroanilino)methyl]pyrazol-1-yl] benzoic acid]	–
1 µg/mL (≈ 1.79 µM)	4 µg/mL (≈ 7.15 µM)	4 µg/mL (≈ 7.15 µM)	2 µg/mL (≈ 3.58 µM)	4 µg/mL (≈ 7.15 µM)	2 µg/mL (≈ 3.58 µM)	2 µg/mL (≈ 3.58 µM)	4 µg/mL (≈ 7.15 µM)	2 µg/mL (≈ 3.58 µM)	4 µg/mL (≈ 7.15 µM)	O=C(O)c1ccc(-n2cc(CNc3cc(F)c(F)c(F)c3)c(-c3cc(C(F)(F)F)cc(C(F)(F)F)c3)n2)cc1 [Compound 25, 4-[3-[3,5-Bis(trifluoromethyl)phenyl]-4-[(3,4,5-trifluoroanilino)methyl]pyrazol-1-yl] benzoic acid]	–
1 µg/mL (≈ 1.64 µM)	2 µg/mL (≈ 3.28 µM)	2 µg/mL (≈ 3.28 µM)	1 µg/mL (≈ 1.64 µM)	1 µg/mL (≈ 1.64 µM)	1 µg/mL (≈ 1.64 µM)	1 µg/mL (≈ 1.64 µM)	2 µg/mL (≈ 3.28 µM)	2 µg/mL (≈ 3.28 µM)	2 µg/mL (≈ 3.28 µM)	O=C(O)c1ccc(-n2cc(CNc3cc(Cl)c(F)c(Cl)c3F)c(-c3cc(C(F)(F)F)cc(C(F)(F)F)c3)n2)cc1 [Compound 30, 4-[3-[3,5-Bis(trifluoromethyl)phenyl]-4-[(3,5-dichloro-2,4-difluoro-anilino)methyl]pyrazol-1-yl] benzoic acid]	–
